Reference: patent US20070219203A1, “Arylalkylamino-substituted quinazoline analogues” (Neurogen Corporation, priority 2004, published 2007)

target: T1, human capsaicin receptor (Homo sapiens, UniProt Q8NER1); experiment: Calcium mobilization assay, antagonist activity (Example 6); type: cell-based; settings: Table I; 50% decrease in fluorescence response of cells expressing human capsaicin receptor exposed to capsaicin
T1 construct: expressed in transfected cells
Experimental: A cDNA encoding full length human capsaicin receptor (SEQ ID NO:1, 2 or 3 of U.S. Pat. No. 6,482,611) is subcloned in the plasmid pBK-CMV (Stratagene, La Jolla, Calif.) for recombinant expression in mammalian cells.
Human embryonic kidney (HEK293) cells are transfected with the pBK-CMV expression construct encoding the full length human capsaicin receptor using standard methods. The transfected cells are selected for two weeks in media containing G418 (400 μg/ml) to obtain a pool of stably transfected cells. Independent clones are isolated from this pool by limiting dilution to obtain clonal stable cell lines for use in subsequent experiments.
Cells transfected with expression plasmids (as described in Example 4) and thereby expressing human capsaicin receptor are seeded and grown to 70-90% confluency in FALCON black-walled, clear-bottomed 96-well plates (#3904, BECTON-DICKINSON, Franklin Lakes, N.J.). The culture medium is emptied from the 96 well plates and […] calcium sensitive dye (Molecular Probes, Eugene, Oreg.) is added to each well (dye solution: 1 mg […], 440 μL DMSO and 440 μl 20% pluronic acid in DMSO, diluted 1:250 in Krebs-Ringer HEPES (KRH) buffer (25 mM HEPES, 5 mM KCl, 0.96 mM NaH2PO4, 1 mM MgSO4, 2 mM CaCl2, 5 mM glucose, 1 mM probenecid, pH 7.4), 50 μl diluted solution per well). Plates are covered with aluminum foil and incubated at 37° C. for 1-2 hours in an environment containing 5% CO2. After the incubation, the dye is emptied from the plates, and the cells are washed once with KRH buffer, and resuspended in KRH buffer.
To measure the ability of a test compound to agonize or antagonize a calcium mobilization response in cells expressing capsaicin receptors to capsaicin or other vanilloid agonist, the EC50 of the agonist capsaicin is first determined. An additional 20 μl of KRH buffer and 1 μl DMSO is added to each well of cells, prepared as described above. 100 μl capsaicin in KRH buffer is automatically transferred by the FLIPR instrument to each well. Capsaicin-induced calcium mobilization is monitored using either FLUOROSKAN ASCENT (Labsystems; Franklin, Mass.) or FLIPR (fluorometric imaging plate reader system; Molecular Devices, Sunnyvale, Calif.) instruments. Data obtained between 30 and 60 seconds after agonist application are used to generate an 8-point concentration response curve, with final capsaicin concentrations of 1 nM to 3 μM. KALEIDAGRAPH software (Synergy Software, Reading, Pa.) is used to fit the data to the equation: y=a*(1/(1+(b/x)^c)) to determine the 50% excitatory concentration (EC50) for the response. In this equation, y is the maximum fluorescence signal, x is the concentration of the agonist or antagonist (in this case, capsaicin), a is the Emax, b corresponds to the EC50 value and c is the Hill coefficient. Determination of Agonist Activity
Test compounds are dissolved in DMSO, diluted in 20 μl KRH buffer so that the final concentration of test compounds in the assay well is between 1 μM and 5 μM, and added to cells prepared as described above. The 96 well plates containing prepared cells and test compounds are incubated in the dark, at room temperature for 0.5 to 6 hours. It is important that the incubation not continue beyond 6 hours. Just prior to determining the fluorescence response, 100 μl capsaicin in KRH buffer at twice the EC50 concentration determined as described above is automatically added by the FLIPR instrument to each well of the 96 well plate for a final sample volume of 200 μl and a final capsaicin concentration equal to the EC50. The final concentration of test compounds in the assay wells is between 1 μM and 5 μM. […] The concentration of antagonist required to provide a 50% decrease, relative to the response observed in the presence of capsaicin and without antagonist, is the IC50 for the antagonist, and is preferably below 1 micromolar, 100 nanomolar, 10 nanomolar or 1 nanomolar.

T1 sequence (Q8NER1 whole entry): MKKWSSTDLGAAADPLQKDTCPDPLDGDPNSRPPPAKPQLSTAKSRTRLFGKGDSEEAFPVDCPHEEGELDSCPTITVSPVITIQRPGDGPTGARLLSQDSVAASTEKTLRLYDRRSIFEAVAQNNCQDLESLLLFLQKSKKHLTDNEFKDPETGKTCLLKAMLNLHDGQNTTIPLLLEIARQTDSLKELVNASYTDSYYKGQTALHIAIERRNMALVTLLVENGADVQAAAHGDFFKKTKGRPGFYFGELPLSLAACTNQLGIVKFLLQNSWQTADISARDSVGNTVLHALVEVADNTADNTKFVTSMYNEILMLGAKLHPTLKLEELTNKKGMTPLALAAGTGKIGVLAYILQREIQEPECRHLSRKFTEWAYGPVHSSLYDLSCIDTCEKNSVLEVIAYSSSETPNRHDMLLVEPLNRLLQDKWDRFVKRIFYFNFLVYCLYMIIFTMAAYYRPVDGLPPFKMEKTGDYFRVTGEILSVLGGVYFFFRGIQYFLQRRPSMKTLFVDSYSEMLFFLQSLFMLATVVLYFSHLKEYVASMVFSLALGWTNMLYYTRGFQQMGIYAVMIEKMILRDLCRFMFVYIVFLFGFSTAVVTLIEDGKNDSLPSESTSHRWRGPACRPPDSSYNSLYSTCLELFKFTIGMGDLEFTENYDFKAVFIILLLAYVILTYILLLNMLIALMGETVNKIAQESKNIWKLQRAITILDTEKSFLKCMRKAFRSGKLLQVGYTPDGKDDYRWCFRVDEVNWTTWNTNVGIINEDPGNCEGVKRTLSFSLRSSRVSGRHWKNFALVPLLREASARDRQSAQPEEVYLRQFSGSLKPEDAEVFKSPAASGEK

IC50, ≤ 1000 nM:
Cc1nc(NCCc2ccccc2Cl)c2ccc(-c3ncccc3C)nc2n1 [Compound 32, N-[2-(2-chlorophenyl)ethyl]-2-methyl-7-(3-methylpyridin-2-yl)pyrido[2,3-d]pyrimidin-4-amine]
CC(C)COCc1nc(NCCc2ccccc2Cl)c2ccc(-c3ncccc3C(F)(F)F)nc2n1 [Compound 33, N-[2-(2-chlorophenyl)ethyl]-2-(isobutoxymethyl)-7-[3-(trifluoromethyl)pyridin-2-yl]pyrido[2,3-d]pyrimidin-4-amine]
CC(C)COCc1nc(NCCc2cccc(Cl)c2)c2ccc(-c3ncccc3C(F)(F)F)nc2n1 [Compound 34, N-[2-(3-chlorophenyl)ethyl]-2-(isobutoxymethyl)-7-[3-(trifluoromethyl)pyridin-2-yl]pyrido[2,3-d]pyrimidin-4-amine]
CC(C)COCc1nc(NCCc2ccc(Cl)cc2)c2ccc(-c3ncccc3C(F)(F)F)nc2n1 [Compound 35, N-[2-(4-chlorophenyl)ethyl]-2-(isobutoxymethyl)-7-[3-(trifluoromethyl)pyridin-2-yl]pyrido[2,3-d]pyrimidin-4-amine]
CC(C)COCc1nc(NCCc2cccc(F)c2)c2ccc(-c3ncccc3C(F)(F)F)nc2n1 [Compound 36, N-[2-(3-fluorophenyl)ethyl]-2-(isobutoxymethyl)-7-[3-(trifluoromethyl)pyridin-2-yl]pyrido[2,3-d]pyrimidin-4-amine]
CC(C)COCc1nc(NCCc2ccc(F)cc2)c2ccc(-c3ncccc3C(F)(F)F)nc2n1 [Compound 37, N-[2-(4-fluorophenyl)ethyl]-2-(isobutoxymethyl)-7-[3-(trifluoromethyl)pyridin-2-yl]pyrido[2,3-d]pyrimidin-4-amine]
CC(C)COCc1nc(NCCc2ccccc2C(F)(F)F)c2ccc(-c3ncccc3C(F)(F)F)nc2n1 [Compound 38, 2-(isobutoxymethyl)-N-{2-[2-(trifluoromethyl)phenyl]ethyl}-7-[3-(trifluoromethyl)pyridin-2-yl]pyrido[2,3-d]pyrimidin-4-amine]
CC(C)COCc1nc(NCCc2cccc(C(F)(F)F)c2)c2ccc(-c3ncccc3C(F)(F)F)nc2n1 [Compound 39, 2-(isobutoxymethyl)-N-{2-[3-(trifluoromethyl)phenyl]ethYl}-7-[3-(trifluoromethyl)pyridin-2-yl]pyrido[2,3-d]pyrimidin-4-amine]
CC(C)COCc1nc(NCCc2ccc(C(F)(F)F)cc2)c2ccc(-c3ncccc3C(F)(F)F)nc2n1 [Compound 40, 2-(isobutoxymethyl)-N-{2-[4-(trifluoromethyl)phenyl]ethyl}-7-[3-(trifluoromethyl)pyridin-2-yl]pyrido[2,3-d]pyrimidin-4-amine]
COc1ccccc1CCNc1nc(COCC(C)C)nc2nc(-c3ncccc3C(F)(F)F)ccc12 [Compound 41, 2-(isobutoxymethyl)-N-[2-(2-methoxyphenyl)ethyl]-7-[3-(trifluoromethyl)pyridin-2-yl]pyrido[2,3-d]pyrimidin-4-amine]
COc1cccc(CCNc2nc(COCC(C)C)nc3nc(-c4ncccc4C(F)(F)F)ccc23)c1 [Compound 42, 2-(isobutoxymethyl)-N-[2-(3-methoxyphenyl)ethyl]-7-[3-(trifluoromethyl)pyridin-2-yl]pyrido[2,3-d]pyrimidin-4-amine]
COc1ccc(CCNc2nc(COCC(C)C)nc3nc(-c4ncccc4C(F)(F)F)ccc23)cc1 [Compound 43, 2-(isobutoxymethyl)-N-[2-(4-methoxyphenyl)ethyl]-7-[3-(trifluoromethyl)pyridin-2-yl]pyrido[2,3-d]pyrimidin-4-amine]
CC(C)COCc1nc(NCCc2ccccc2F)c2ccc(-c3ncccc3Cl)nc2n1 [Compound 44, 7-(3-chloropyridin-2-yl)-N-[2-(2-fluorophenyl)ethyl]-2-(isobutoxymethyl)pyrido[2,3-d]pyrimidin-4-amine]
CC(C)COCc1nc(NCCc2cccc(F)c2)c2ccc(-c3ncccc3Cl)nc2n1 [Compound 45]
CC(C)COCc1nc(NCCc2ccc(F)cc2)c2ccc(-c3ncccc3Cl)nc2n1 [Compound 46, 7-(3-chloropyridin-2-yl)-N-[2-(4-fluorophenyl)ethyl]-2-(isobutoxymethyl)pyrido[2,3-d]pyrimidin-4-amine]
CC(C)COCc1nc(NCCc2ccccc2Cl)c2ccc(-c3ncccc3Cl)nc2n1 [Compound 47, N-[2-(2-chlorophenyl)ethyl]-7-(3-chloropyridin-2-yl)-2-(isobutoxymethyl)pyrido[2,3-d]pyrimidin-4-amine]
CC(C)COCc1nc(NCCc2cccc(Cl)c2)c2ccc(-c3ncccc3Cl)nc2n1 [Compound 48, N-[2-(3-chlorophenyl)ethyl]-7-(3-chloropyridin-2-yl)-2-(isobutoxymethyl)pyrido[2,3-d]pyrimidin-4-amine]
CC(C)COCc1nc(NCCc2ccc(Cl)cc2)c2ccc(-c3ncccc3Cl)nc2n1 [Compound 49, N-[2-(4-chlorophenyl)ethyl]-7-(3-chloropyridin-2-yl)-2-(isobutoxymethyl)pyrido[2,3-d]pyrimidin-4-amine]
CC(C)COCc1nc(NCCc2ccccc2C(F)(F)F)c2ccc(-c3ncccc3Cl)nc2n1 [Compound 50, 7-(3-chloropyridin-2-yl)-2-(isobutoxymethyl)-N-{2-[2-(trifluoromethyl)phenyl]ethyl}pyrido[2,3-d]pyrimidin-4-amine]
CC(C)COCc1nc(NCCc2cccc(C(F)(F)F)c2)c2ccc(-c3ncccc3Cl)nc2n1 [Compound 51, 7-(3-chloropyridin-2-yl)-2-(isobutoxymethyl)-N-{2-[3-(trifluoromethyl)phenyl]ethyl}pyrido[2,3-d]pyrimidin-4-amine]
CCOCc1nc(NCCc2ccccc2F)c2ccc(-c3ncccc3Cl)nc2n1 [Compound 52, 7-(3-chloropyridin-2-yl)-n-(ethoxymethyl)-N-[2-(2-fluorophenyl)ethyl]pyrido[2,3-d]pyrimidin-4-amine]
CCOCc1nc(NCCc2ccc(F)cc2)c2ccc(-c3ncccc3Cl)nc2n1 [Compound 53, 7-(3-chloropyridin-2-yl)-2-(ethoxymethyl)-N-[2-(4-fluorophenyl)ethyl]pyrido[2,3-d]pyrimidin-4-amine]
CCOCc1nc(NCCc2ccccc2Cl)c2ccc(-c3ncccc3Cl)nc2n1 [Compound 54, N-[2-(2-chlorophenyl)ethyl]-7-(3-chloropyridin-2-yl)-2-(ethoxymethyl)pyrido[2,3-d]pyrimidin-4-amine]
CCOCc1nc(NCCc2cccc(Cl)c2)c2ccc(-c3ncccc3Cl)nc2n1 [Compound 55, N-[2-(3-chlorophenyl)ethyl]-7-(3-chloropyridin-2-yl)-2-(ethoxymethyl)pyrido[2,3-d]pyrimidin-4-amine]
CCOCc1nc(NCCc2ccccc2C(F)(F)F)c2ccc(-c3ncccc3Cl)nc2n1 [Compound 56, 7-(3-chloropyridin-2-yl)-2-(ethoxymethyl)-N-{2-[2-(trifluoromethyl)phenyl]ethyl}pyrido [2,3-d]pyrimidin-4-amine]
CCOCc1nc(NCCc2cccc(OC)c2)c2ccc(-c3ncccc3Cl)nc2n1 [Compound 57, 7-(3-chloropyridin-2-yl)-2-(ethoxymethyl)-N-[2-(3-methoxyphenyl)ethyl]pyrido[2,3-d]pyrimidin-4-amine]
